Test results taken from US20230277553A1, “THERAPEUTIC COMPOSITION OF CURE-PRO COMPOUNDS FOR TARGETED DEGRADATION OF BET DOMAIN PROTEINS, AND METHODS OF MAKING AND USAGE” (CORNELL UNIVERSITY, priority 2020, published 2023).
“Also recorded” adds a separate entry of the source.

What was measured:
[1] = molecular target: T1, BRD2 (Homo sapiens, UniProt P25440); assay: CURE-PRO-mediated BRD2 degradation with MDM2 ligands, Western blot, HCT116 cells; assay type: cell-based; settings: HCT116, 24 h, 1:1, 10 μM
T1 construct: endogenous in cells; host or cells: HCT116
T1 sequence (P25440 whole entry): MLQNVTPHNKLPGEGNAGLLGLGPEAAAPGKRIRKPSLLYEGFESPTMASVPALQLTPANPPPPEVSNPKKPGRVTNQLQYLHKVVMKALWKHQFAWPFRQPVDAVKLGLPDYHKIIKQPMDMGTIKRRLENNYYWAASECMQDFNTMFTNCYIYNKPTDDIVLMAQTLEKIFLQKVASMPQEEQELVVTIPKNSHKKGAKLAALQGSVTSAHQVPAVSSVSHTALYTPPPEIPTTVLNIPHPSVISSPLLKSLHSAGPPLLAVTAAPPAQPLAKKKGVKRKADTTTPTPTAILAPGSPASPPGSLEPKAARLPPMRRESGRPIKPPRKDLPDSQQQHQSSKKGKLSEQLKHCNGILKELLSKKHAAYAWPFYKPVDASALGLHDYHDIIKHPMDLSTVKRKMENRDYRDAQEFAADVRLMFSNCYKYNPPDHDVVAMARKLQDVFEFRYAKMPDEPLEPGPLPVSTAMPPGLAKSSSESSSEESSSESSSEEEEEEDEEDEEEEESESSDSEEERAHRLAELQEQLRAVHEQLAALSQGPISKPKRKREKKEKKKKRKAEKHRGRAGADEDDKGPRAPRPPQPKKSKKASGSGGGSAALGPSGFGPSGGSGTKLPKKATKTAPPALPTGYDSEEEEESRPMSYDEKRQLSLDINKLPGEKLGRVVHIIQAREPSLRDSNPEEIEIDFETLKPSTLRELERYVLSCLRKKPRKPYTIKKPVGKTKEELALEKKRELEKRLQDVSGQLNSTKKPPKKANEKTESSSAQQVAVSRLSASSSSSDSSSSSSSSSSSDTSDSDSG
Source text: (§1) Anti-BRD4 (13440, 1:1,000 dilution for Western Blot and 1:25 dilution for ProteinSimple); Anti-BRD2 (5848 1:1,000 dilution for Western Blot and 1:25 dilution for ProteinSimple); β-Actin (3700, 1:2,000 dilution for Western Blot), β-Actin (4970, 1:50 dilution for ProteinSimple) anti-mouse IgG-HRP, and anti-rabbit IgG-HRP antibodies were purchased Cell Signaling Technology. Anti-GAPDH (600-401-A33, 1:100 dilution for ProteinSimple) was purchased from Rockland Immunochemicals, Inc. Anti-BRD3 (sc-81202, 1:200 dilution for Western Blot) was purchased from Santa Cruz Biotechnology.
(§2) HeLa, MCF7, or HCT116 cells (2.5-3×10^6) were treated for 24 hours with the indicated compounds solubilized in DMSO. The cells were washed in ice-cold PBS and were then lysed in RIPA lysis buffer (150 mM NaCl, 5 mM EDTA, 1% NP-40, 0.5% sodium deoxycholate, 0.1% SDS, 50 mM Tris, pH 8.0.) with Roche protease inhibitor complete cocktail and phosphatase inhibitors (10 mM sodium fluoride, 10 mM sodium pyrophosphate, 1 mM sodium orthovanadate and 20 mM β-glycerophosphate). The total protein concentrations were determined by Bradford Protein Assay and 10-20 μg of protein was loaded onto 4-15% Tris-Glycine gradient gels (Biorad). […] Signal was detected with ECL Western Blotting Substrate (Pierce) and X-ray film processed with a Konica SRX-101 X-ray film processor or captured by Bio-Rad's Chemidoc Imaging system. […]

[2] = molecular target: T2, BRD4 (Homo sapiens, UniProt O60885); assay: CURE-PRO-mediated BRD4 degradation with MDM2 ligands, Western blot, HCT116 cells; assay type: cell-based; set-up: endogenous in cells; settings: for BRD4 degradation, in combination with MDM2 ligands 8310 and 8312 (Western blot): HCT116, 24 h, 1:1, 10 μM; for Selectivity of degradation within the BRD protein family, with MDM2 ligands: HCT116, Western blot, with 8310 / 8312
Source text: as §1
HeLa, MCF7, or HCT116 cells (2.5-3×10^6) were treated for 24 hours with the indicated compounds solubilized in DMSO. The cells were washed in ice-cold PBS and were then lysed in RIPA lysis buffer (150 mM NaCl, 5 mM EDTA, 1% NP-40, 0.5% sodium deoxycholate, 0.1% SDS, 50 mM Tris, pH 8.0.) with Roche protease inhibitor complete cocktail and phosphatase inhibitors (10 mM sodium fluoride, 10 mM sodium pyrophosphate, 1 mM sodium orthovanadate and 20 mM β-glycerophosphate). The total protein concentrations were determined by Bradford Protein Assay and 10-20 μg of protein was loaded onto 4-15% Tris-Glycine gradient gels (Biorad). After standard gel electrophoresis, the separated proteins were transferred to PVDF membrane by wet transfer. The immunoblots were then blocked for 1 hour in 5% skim milk in TBST or 5% BSA in TBST, according to manufacturer's instructions, before an overnight incubation at 4° C. with indicated antibodies and membranes. Membranes were then incubated with the appropriate horseradish peroxidase-conjugated secondary antibodies (1:5,000 dilution) for 1 h at room temperature and the bands were visualized using the Clarity Max Western ECL Substrate (Biorad) and the ChemiDoc Imaging System (Biorad). Signal was detected with ECL Western Blotting Substrate (Pierce) and X-ray film processed with a Konica SRX-101 X-ray film processor or captured by Bio-Rad's Chemidoc Imaging system.
HCT116 cells (3×10^6) were treated for 24 hours with the compounds solubilized in DMSO. Compounds were added at 100 nM-10 μM each. Standardized protein samples were electrophoresed and imaged as described in the Immunoblotting section above. FIGS. 64 and 65 depict the concentration-dependence of CURE-PRO-mediated BRD2 and BRD3 degradation using MDM2 ligands.

[3] = test system: SLC19A1; assay: Suppression of c-MYC downstream target gene SLC19A1, RT-PCR (Cells-to-Ct), HeLa cells; assay type: cell-based, Human; settings: 24 h, 10 μM each
Description: The suppression of the expression of the downstream c-MYC target, SLC19A1, was measured by RT-PCR using Power SYBR© Green Cells-to-Ct™ Kit (Life Technologies). Adherent cells were plated on 96 well plates at 5,000 cells per well were treated for 24h with monomer compounds and compounds capable of reversible interactions (1 nM-100 μM). Cells were subsequently washed in ice-cold PBS processed according to the manufacturer's instructions. Quantitative real-time PCR was performed using a ViiA™ 7 Real-time PCR System (Applied Biosystems, Foster City, Calif., USA). GAPDH and ACTB served as internal controls. The primers used were (5′-3′): GAPDH-F: AGCCACATCGCTCAGACAC (SEQ ID NO:9), GAPDH-R: GCCCAATACGACCAAATCC (SEQ ID NO:10), ACTB —F: CCAACCGCGAGAAGATGA (SEQ ID NO: 11), ACTB -R: […] (SEQ ID NO: 12), SLC19A1-F: […] (SEQ ID NO:13), SLC19A1-R: […] (SEQ ID NO: 14).
HeLa cells (1×104) were treated for 24 hours in 96 well plates with the compounds solubilized in DMSO. Compounds were added at 10 μM each and RNA expression measured by the Cells-to Ct method described above (Thermofisher). CURE-PRO-mediated suppression of the downstream target gene of c-MYC, SLC19A1, after BRD4 degradation was evident in cells treated with the combination of BRD-N25 and 8310 or 8312 (FIG. 66) and BRD-N39 and 8310 and 8312 (FIG. 67) as indicated by a rightward shift in the curve and in increase in the Ct values.

[4] = molecular target: T3, BRD3 (Homo sapiens, UniProt Q15059); assay: CURE-PRO-mediated BRD3 degradation with MDM2 ligands, Western blot, HCT116 cells; assay type: cell-based; settings: HCT116, 24 h, 1:1, 10 μM
T3 construct: endogenous in cells; host or cells: HCT116
T3 sequence (Q15059 whole entry): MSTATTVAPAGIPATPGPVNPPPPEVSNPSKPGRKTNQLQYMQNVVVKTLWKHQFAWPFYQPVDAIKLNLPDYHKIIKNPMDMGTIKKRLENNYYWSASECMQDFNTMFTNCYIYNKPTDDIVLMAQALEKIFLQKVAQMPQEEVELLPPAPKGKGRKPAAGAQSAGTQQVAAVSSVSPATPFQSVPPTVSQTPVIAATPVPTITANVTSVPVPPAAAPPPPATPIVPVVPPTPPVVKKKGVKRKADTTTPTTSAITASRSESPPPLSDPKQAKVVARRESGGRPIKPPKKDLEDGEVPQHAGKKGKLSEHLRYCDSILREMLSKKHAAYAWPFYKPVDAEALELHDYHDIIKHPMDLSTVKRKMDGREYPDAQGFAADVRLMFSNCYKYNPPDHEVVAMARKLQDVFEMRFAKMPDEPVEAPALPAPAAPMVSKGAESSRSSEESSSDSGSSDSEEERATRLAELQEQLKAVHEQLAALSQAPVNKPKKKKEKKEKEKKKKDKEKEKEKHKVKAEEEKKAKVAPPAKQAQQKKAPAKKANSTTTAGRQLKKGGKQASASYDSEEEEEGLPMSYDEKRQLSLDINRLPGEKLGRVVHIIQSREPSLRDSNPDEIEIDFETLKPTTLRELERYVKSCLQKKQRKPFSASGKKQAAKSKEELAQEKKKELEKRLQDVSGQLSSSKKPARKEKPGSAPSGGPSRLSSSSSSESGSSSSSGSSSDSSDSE
Source text: as §1, §2

[5] = molecular target: T2, BRD4; assay: CURE-PRO-mediated BRD4 degradation, Western blot, HeLa cells; assay type: cell-based; set-up: endogenous in cells; host or cells: HeLa; settings: 24 h, Western blot
Procedure, shortened: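 HeLa cells treated 24 h with compounds in DMSO (1-10 μM, 10 μM or 100 μM each; paired monomers combined 1:1), optional 15-min pretreatment with pomalidomide, VHL298, Nutlin3a (10 μM) or MG-132/carfilzomib (1 μM). RIPA lysates, 10-20 μg protein immunoblotted for BRD4 with β-actin, ECL detection.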

Structure (SMILES)	BRD2 degradation, in combination with MDM2 ligands 8310 and 8312 [1]	BRD4 degradation, in combination with MDM2 ligands 8310 and 8312 (Western blot) [2]	Selectivity of degradation within the BRD protein family, with MDM2 ligands [2]	Suppression of SLC19A1 expression, combination with 8310 [3]	Suppression of SLC19A1 expression, combination with 8312 [3]	BRD3 degradation, in combination with MDM2 ligands 8310 and 8312 [4]	BRD4 degradation, co-treatment with CRBN ligand 8048 ([5]; 1:1 with 8048, 1-10 μM each)	BRD4 degradation, co-treatment with CRBN ligand 8049 ([5]; 1:1 with 8049, 1-10 μM each)	BRD4 degradation, BRD ligand alone ([5]; BRD monomer alone)	BRD4 degradation, co-treatment with CRBN ligand 8046 ([5]; 1:1 with 8046, 10 μM each)	BRD4 degradation, co-treatment with CRBN ligand 8066 ([5]; 1:1 with 8066, 10 μM each (BRD-E10: 10 and 100 μM))
CCNC(=O)C[C@@H]1N=C(c2ccc(Cl)cc2)c2cc(OCCOCCNC(=O)c3cccc(O)c3O)ccc2-n2c(C)nnc21 [BRD-N39, N-(2-(2-(((4S)-6-(4-chlorophenyl)-4-(2-(ethylamino)-2-oxoethyl)-1-methyl-4H-benzo[f][1,2,4]triazolo[4,3-a][1,4]diazepin-8-yl)oxy)ethoxy)ethyl)-2,3-dihydroxybenzamide]	BRD2 to a lesser extent; also recorded: Degradation is evident	caused BRD4 degradation; also recorded: Degradation is evident	some selectivity for BRD4 over BRD2 and BRD3	evident; also recorded: suppression to levels comparable to that of JQ1 treatment	Complete suppression of SLC19A1 was evident; also recorded: completely suppressed	degradation of BRD3; also recorded: Degradation is evident	causes degradation of BRD4; also recorded: Degradation is noted	no evidence of BRD4 degradation	no degradation of BRD4		
CCNC(=O)C[C@@H]1N=C(c2ccc(Cl)cc2)c2cc(OCCNC(=O)c3cccc(O)c3O)ccc2-n2c(C)nnc21 [BRD-N25]	BRD2 to a lesser extent; also recorded: Degradation is evident	caused BRD4 degradation; also recorded: Degradation is evident	some selectivity for BRD3 and BRD4 over BRD2 for 8310	evident	evident; also recorded: suppressed more substantially	degradation of BRD3; also recorded: Degradation is evident					
CCNC(=O)C[C@@H]1N=C(c2ccc(Cl)cc2)c2cc(OCCCCC(=O)Nc3cccc(B(O)O)c3)ccc2-n2c(C)nnc21 [BRD-E20, (3-(5-(((4S)-6-(4-chlorophenyl)-4-(2-(ethylamino)-2-oxoethyl)-1-methyl-4H-benzo[f][1,2,4]triazolo[4,3-a][1,4]diazepin-8-yl)oxy)pentanamido)phenyl)boronic acid]										causes degradation of BRD4; also recorded: Degradation is noted	causes degradation of BRD4; also recorded: Degradation is noted
